Results published in ChEMBL document CHEMBL6103569, “Discovery of novel fluorine-containing parthenolide analogues as potential antitumor agents” (Eur J Med Chem, 2025).

Key:
[1] = Acute toxicity in BALB/c mouse assessed as heart damage at 100 mg/kg, po; assay type: organism-based; settings: in vivo
[2] = Half life in male BALB/c mouse at 50 mg/kg, po measured upto 24 hrs by LC-MS/MS analysis; assay type: ADME, organism-based; settings: in vivo
[3] = Oral bioavailability in male BALB/c mouse at 50 mg/kg measured upto 24 hrs by LC-MS/MS analysis; assay type: ADME, organism-based; settings: in vivo
[4] = AUC (0 to t) in male BALB/c mouse at 10 mg/kg, iv measured upto 24 hrs by LC-MS/MS analysis; assay type: ADME, organism-based; settings: in vivo
[5] = Volume of distribution in male BALB/c mouse at 10 mg/kg, iv measured upto 24 hrs by LC-MS/MS analysis; assay type: ADME, organism-based; settings: in vivo
[6] = Acute toxicity in BALB/c mouse assessed as kidney damage at 100 mg/kg, po; assay type: organism-based; settings: in vivo
[7] = Cmax in male BALB/c mouse at 50 mg/kg, po measured upto 24 hrs by LC-MS/MS analysis; assay type: ADME, organism-based; settings: in vivo
Huh-7 = assay: Antiproliferative activity against human Huh-7 cells assessed as inhibition of cell growth incubated for 72 hrs by MTT assay; assay type: functional, cell-based; settings: huh-7
PANC-1 = assay: Antiproliferative activity against human PANC-1 cells assessed as inhibition of cell growth incubated for 72 hrs by MTT assay; assay type: functional, cell-based; settings: panc-1
[8] = AUC (0 to t) in male BALB/c mouse at 50 mg/kg, po measured upto 24 hrs by LC-MS/MS analysis; assay type: ADME, organism-based; settings: in vivo
[9] = AUC (0 to infinity) in male BALB/c mouse at 50 mg/kg, po measured upto 24 hrs by LC-MS/MS analysis; assay type: ADME, organism-based; settings: in vivo
[10] = Tmax in male BALB/c mouse at 50 mg/kg, po measured upto 24 hrs by LC-MS/MS analysis; assay type: ADME, organism-based; settings: in vivo
[11] = MRT (0 to t) in male BALB/c mouse at 10 mg/kg, iv measured upto 24 hrs by LC-MS/MS analysis; assay type: ADME, organism-based; settings: in vivo
[12] = Acute toxicity in BALB/c mouse assessed as liver damage at 100 mg/kg, po; assay type: organism-based; settings: in vivo
[13] = Acute toxicity in BALB/c mouse assessed as change in body weight at 100 mg/kg, po; assay type: organism-based; settings: in vivo
[14] = Acute toxicity in BALB/c mouse assessed as lung damage at 100 mg/kg, po; assay type: organism-based; settings: in vivo
[15] = Acute toxicity in BALB/c mouse assessed as spleen damage at 100 mg/kg, po; assay type: organism-based; settings: in vivo
[16] = AUC (0 to infinity) in male BALB/c mouse at 10 mg/kg, iv measured upto 24 hrs by LC-MS/MS analysis; assay type: ADME, organism-based; settings: in vivo
[17] = MRT (0 to t) in male BALB/c mouse at 50 mg/kg, po measured upto 24 hrs by LC-MS/MS analysis; assay type: ADME, organism-based; settings: in vivo
[18] = Clearance in male BALB/c mouse at 10 mg/kg, iv measured upto 24 hrs by LC-MS/MS analysis; assay type: ADME, organism-based; settings: in vivo
[19] = Half life in male BALB/c mouse at 10 mg/kg, iv measured upto 24 hrs by LC-MS/MS analysis; assay type: ADME, organism-based; settings: in vivo
[20] = Antiproliferative activity against human NCI-H820 cells assessed as inhibition of cell growth incubated for 72 hrs by MTT assay; assay type: functional, cell-based; settings: nci-h820
[21] = Prodrug conversion of the compound in HEPES buffer assessed as (1aR,7aS,10aS,10bS)-1a-methyl-8-methylene-5-(2,2,2-trifluoroethyl)-2,3,6,7,7a,8,10a,10b-octahydrooxireno[2',3':9,10]cyclodeca[1,2-b]furan-9(1aH)-one formation by measuring half life at pH 7.4 by RP-HPLC analysis; assay type: ADME
[22] = Acute toxicity in BALB/c mouse assessed as brain damage at 100 mg/kg, po; assay type: organism-based; settings: in vivo
[23] = Initial plasma concentration in male BALB/c mouse at 10 mg/kg, iv measured upto 24 hrs by LC-MS/MS analysis; assay type: ADME, organism-based

CN(C)CC1C(=O)O[C@H]2[C@H]1CC/C(CC(F)(F)F)=C\CC[C@@]1(C)O[C@@H]21.O=C(O)/C=C/C(=O)O (stereo not given in full)
Activity [1]: Non-toxic | half-life [2]: 47.9 min | bioavailability [3]: 45.2% | AUC(0-t) at 24 h [4]: 438 ng·h/mL | Vd [5]: 12.1 L/kg | Activity [6]: Non-toxic | Cmax [7]: 1080 ng/mL | IC50 (Huh-7): 3.41 µM | IC50 (PANC-1): 4.16 µM | AUC(0-t) at 24 h [8]: 991 ng·h/mL | AUC(0-inf) [9]: 991 ng·h/mL | Tmax [10]: 15 min | MRT last at 24 h [11]: 24.1 min | Activity [12]: Non-toxic | Activity [13]: Non-toxic | Activity [14]: Non-toxic | Activity [15]: Non-toxic | AUC(0-inf) [16]: 444 ng·h/mL | MRT last at 24 h [17]: 49.7 min | clearance [18]: 253 mL/min/kg | half-life [19]: 33.2 min | IC50 [20]: 4.18 µM | t1/2 [21]: 76.8 min | Activity [22]: Non-toxic | C0 at 24 h [23]: 1450 ng/mL
